Assays:
[1] = Dissociation constant, pKa of compound; format: physicochemical
[2] = target: T1, N-alpha-acetyltransferase 50 (Homo sapiens) (UniProt Q9GZZ1)
T1 sequence (whole entry): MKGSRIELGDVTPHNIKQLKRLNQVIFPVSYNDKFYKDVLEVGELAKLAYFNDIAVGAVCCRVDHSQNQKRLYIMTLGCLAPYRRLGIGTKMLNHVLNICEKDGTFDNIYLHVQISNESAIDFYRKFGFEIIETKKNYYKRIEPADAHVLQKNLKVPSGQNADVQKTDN
Description: Binding affinity to full length human N-terminal His-tagged/GST-tagged Naa50 expressed in Escherichia coli BL21(DE3) cells assessed as half life for dissociation by SPR analysis

[3] = target: T2, N-alpha-acetyltransferase 50 (Homo sapiens, UniProt Q9GZZ1); assay: Binding affinity to full length human N-terminal His-tagged/GST-tagged Naa50 expressed in Escherichia coli BL21(DE3) cells in by SPR analysis
T2 sequence (Q9GZZ1 whole entry): T1 sequence (whole entry)

| Structure (SMILES) | pKa [1] | T1/2 [2] [min] | Kd [3] [nM] |
| --- | --- | --- | --- |
| Cc1csc([C@@H]2C[C@H](NC(=O)[C@@H]3CC(=O)N(C)C(=O)N3)CN2C(=O)c2ccc(C(=O)O)cc2)n1 | 3.6 | – | – |
| Cc1csc([C@@H]2C[C@H](NC(=O)[C@@H]3CC(=O)N(C)C(=O)N3)CN2C(=O)c2ccc(-c3nn[nH]n3)cc2)n1 | 3.7 | – | – |
| CNC(=O)c1csc([C@@H]2C[C@H](NC(=O)[C@@H]3CC(=O)N(C)C(=O)N3)CN2C(=O)c2ccc(-c3nn[nH]n3)cc2)n1 | 4 | – | – |
| CC(=O)SCCNC(=O)CCNC(=O)[C@H](O)C(C)(C)COP(=O)(O)OP(=O)(O)OC[C@H]1O[C@@H](n2cnc3c(N)ncnc32)[C@H](O)[C@@H]1OP(=O)(O)O | – | 4 | 17.6 |
| CC(C)(COP(=O)(O)OP(=O)(O)OC[C@H]1O[C@@H](n2cnc3c(N)ncnc32)[C@H](O)[C@@H]1OP(=O)(O)O)[C@@H](O)C(=O)NCCC(=O)NCCS [COENZYME_A] | – | 0.4 | 156 |
| Cc1csc([C@@H]2C[C@H](NC(=O)[C@@H]3CC(=O)N(C)C(=O)N3)CN2C(=O)c2ccc(-c3nnc[nH]3)cc2)n1 | 8.9 | – | – |
